# Assay results: patent US20220041606A1, “POSITIVE ALLOSTERIC MODULATORS OF THE MUSCARINIC ACETYLCHOLINE RECEPTOR M1” (Vanderbilt University, priority 2020, published 2022)
# Key:
# human mAChR M1 [1] = molecular target: T1, human mAChR M1 (Homo sapiens, UniProt P11229); experiment: mAChR M1 cell-based functional assay (calcium mobilization), PAM activity: increase in the EC20 acetylcholine response; details: CHO-K1 cells expressing hM1; potentiation of EC20 acetylcholine response
# T1 construct: host or cells: CHO-K1 cells (ATCC), stably transfected using Lipofectamine2000
# T1 sequence (P11229 1-460): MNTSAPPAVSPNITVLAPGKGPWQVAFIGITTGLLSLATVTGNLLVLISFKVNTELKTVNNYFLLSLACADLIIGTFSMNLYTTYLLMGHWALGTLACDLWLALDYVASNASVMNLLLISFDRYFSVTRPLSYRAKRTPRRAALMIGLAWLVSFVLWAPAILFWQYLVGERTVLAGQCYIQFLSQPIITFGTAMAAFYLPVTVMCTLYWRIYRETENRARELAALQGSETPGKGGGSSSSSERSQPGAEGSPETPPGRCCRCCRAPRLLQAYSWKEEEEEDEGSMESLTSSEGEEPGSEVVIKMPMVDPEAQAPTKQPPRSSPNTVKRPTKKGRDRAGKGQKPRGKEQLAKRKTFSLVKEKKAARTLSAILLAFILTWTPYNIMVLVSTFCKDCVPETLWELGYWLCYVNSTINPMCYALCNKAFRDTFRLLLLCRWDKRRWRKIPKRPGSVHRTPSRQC
# Method in brief: (§1)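 Fluorescence ratio calcium read-out (Fluo-4 AM, FDSS 6000) in human M1-expressing CHO-K1 cells. Agonist activity taken as concentration-dependent rise after compound addition; potentiation as enhancement of a subsequent EC20 acetylcholine challenge. Curves from 11-point threefold dilutions fitted by four-parameter logistic; Emax expressed versus acetylcholine maximum.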
# human mAChR M1 [2] = molecular target: T1, human mAChR M1; experiment: mAChR M1 cell-based functional assay (calcium mobilization), agonist activity upon compound addition; details: CHO-K1 cells expressing hM1; for EC50: compound alone, before acetylcholine addition; for Emax: relative to the maximum for acetylcholine
# Method in brief: as §1
EC50 (human mAChR M1 [1]) [µM],Emax (human mAChR M1 [1]) [%],EC50 (human mAChR M1 [2]) [µM],Emax (human mAChR M1 [2]) [%],Compound
0.1,70,3.17,55,"O=C(N[C@H]1CCCC[C@@H]1O)c1cn(Cc2ccc(-n3cccn3)cc2)c(=O)n2ccnc12 [Compound B13, 6-(4-(1H-pyrazol-1-yl)benzyl)-N-((1S,2S)-2-hydroxycyclohexyl)-5-oxo-5,6-dihydroimidazo[1,2-c]pyrimidine-8-carboxamide]"
1.33,70,,28,"O=C(N[C@H]1CCC[C@@H]1O)c1cn(Cc2ccc(-n3cccn3)cc2)c(=O)n2ccnc12 [Compound B14, 6-(4-(1H-pyrazol-1-yl)benzyl)-N-((1S,2S)-2-hydroxycyclopentyl)-5-oxo-5,6-dihydroimidazo[1,2-c]pyrimidine-8-carboxamide]"
0.027,70,2.96,64,"Cn1cc(-c2ccc(Cn3cc(C(=O)N[C@H]4CCCCC[C@@H]4O)c4nccn4c3=O)c(F)c2)cn1 [Compound B15, 6-(2-fluoro-4-(1-methyl-1H-pyrazol-4-yl)benzyl)-N-((1S,2S)-2-hydroxycycloheptyl)-5-oxo-5,6-dihydroimidazo[1,2-c]pyrimidine-8-carboxamide]"
0.52,81,> 10,< 5,"O=C(N[C@H]1CCCCC[C@@H]1O)c1cn(Cc2ccc(-n3cccn3)cc2)c(=O)n2ccnc12 [Compound B16, 6-(4-(1H-pyrazol-1-yl)benzyl)-N-((1S,2S)-2-hydroxycycloheptyl)-5-oxo-5,6-dihydroimidazo[1,2-c]pyrimidine-8-carboxamide]"
0.47,83,> 10,24,"O=C(N[C@H]1CCOC[C@@H]1O)c1cn(Cc2ccc(-c3cscn3)cc2)c(=O)n2ccnc12 [Compound B17, N-((3R,4S)-3-hydroxytetrahydro-2H-pyran-4-yl)-5-oxo-6-(4-(thiazol-4-yl)benzyl)-5,6-dihydroimidazo[1,2-c]pyrimidine-8-carboxamide]"
0.093,84,5.27,24,"Cn1cc2c(-c3cc(F)c(Cn4cc(C(=O)N[C@H]5CCOC[C@@H]5O)c5nccn5c4=O)c(F)c3)cccc2n1 [Compound B18, 6-(2,6-difluoro-4-(2-methyl-2H-indazol-4-yl)benzyl)-N-((3R,4S)-3-hydroxytetrahydro-2H-pyran-4-yl)-5-oxo-5,6-dihydroimidazo[1,2-c]pyrimidine-8-carboxamide]"
0.47,42,5.24,51,"Cn1cc2c(-c3cc(F)c(Cn4cc(C(=O)N[C@H]5CCCCC[C@@H]5O)c5nccn5c4=O)c(F)c3)cccc2n1 [Compound B19, 6-(2,6-difluoro-4-(2-methyl-2H-indazol-4-yl)benzyl)-N-((1S,2S)-2-hydroxycycloheptyl)-5-oxo-5,6-dihydroimidazo[1,2-c]pyrimidine-8-carboxamide]"
0.24,51,2.79,63,"Cn1cc2c(-c3cc(F)c(Cn4cc(C(=O)N[C@H]5CCCC[C@@H]5O)c5nccn5c4=O)c(F)c3)cccc2n1 [Compound B20, 6-(2,6-difluoro-4-(2-methyl-2H-indazol-4-yl)benzyl)-N-((1S,2S)-2-hydroxycyclohexyl)-5-oxo-5,6-dihydroimidazo[1,2-c]pyrimidine-8-carboxamide]"
0.9,59,> 10,< 5,"Cn1cc2c(-c3cc(F)c(Cn4cc(C(=O)N[C@H]5CCC[C@@H]5O)c5nccn5c4=O)c(F)c3)cccc2n1 [Compound B21, 6-(2,6-difluoro-4-(2-methyl-2H-indazol-4-yl)benzyl)-N-((1S,2S)-2-hydroxycyclopentyl)-5-oxo-5,6-dihydroimidazo[1,2-c]pyrimidine-8-carboxamide]"
1.27,59,> 10,19,"Cn1cc2c(-c3cc(F)c(Cn4cc(C(=O)N[C@H]5CC[C@@H]5O)c5nccn5c4=O)c(F)c3)cccc2n1 [Compound B22, 6-(2,6-difluoro-4-(2-methyl-2H-indazol-4-yl)benzyl)-N-((1S,2S)-2-hydroxycyclobutyl)-5-oxo-5,6-dihydroimidazo[1,2-c]pyrimidine-8-carboxamide]"
7.85,39,> 10,< 5,"Cc1cn2c(=O)n(Cc3ccc(-c4cnn(C)c4)cc3F)cc(C(=O)N[C@H]3CCOC[C@@H]3O)c2n1 [Compound B23, 6-(2-Fluoro-4-(1-methyl-1H-pyrazol-4-yl)benzyl)-N-((3R,4S)-3-hydroxytetrahydro-2H-pyran-4-yl)-2-methyl-5-oxo-5,6-dihydroimidazo[1,2-c]pyrimidine-8-carboxamide]"
≥ 10,41,> 10,< 5,"Cc1cn2c(=O)n(Cc3ccc(-c4cnn(C)c4)cc3F)cc(C(=O)N[C@H]3CCCC[C@@H]3O)c2n1 [Compound B24, 6-(2-fluoro-4-(1-methyl-1H-pyrazol-4-yl)benzyl)-N-((1S,2S)-2-hydroxycyclohexyl)-2-methyl-5-oxo-5,6-dihydroimidazo[1,2-c]pyrimidine-8-carboxamide]"
9.29,33,> 10,< 5,"Cc1cn2c(=O)n(Cc3ccc(-c4ccn(C)n4)cc3F)cc(C(=O)N[C@H]3CCOC[C@@H]3O)c2n1 [Compound B25, 6-(2-fluoro-4-(1-methyl-1H-pyrazol-3-yl)benzyl)-N-((3R,4S)-3-hydroxytetrahydro-2H-pyran-4-yl)-2-methyl-5-oxo-5,6-dihydroimidazo[1,2-c]pyrimidine-8-carboxamide]"
5.53,28,> 10,< 5,"Cc1cn2c(=O)n(Cc3ccc(-c4ccn(C)n4)cc3F)cc(C(=O)N[C@H]3CCCC[C@@H]3O)c2n1 [Compound B26, 6-(2-fluoro-4-(1-methyl-1H-pyrazol-3-yl)benzyl)-N-((1S,2S)-2-hydroxycyclohexyl)-2-methyl-5-oxo-5,6-dihydroimidazo[1,2-c]pyrimidine-8-carboxamide]"
≥ 10,30,> 10,< 5,"Cc1cn2c(=O)n(Cc3ccc(-n4cccn4)cc3)cc(C(=O)N[C@H]3CCOC[C@@H]3O)c2n1 [Compound B27, 6-(4-(1H-pyrazol-1-yl)benzyl)-N-((3R,4S)-3-hydroxytetrahydro-2H-pyran-4-yl)-2-methyl-5-oxo-5,6-dihydroimidazo[1,2-c]pyrimidine-8-carboxamide]"
≥ 10,30,> 10,< 5,"Cc1cn2c(=O)n(Cc3ccc(-n4cccn4)cc3)cc(C(=O)N[C@H]3CCCC[C@@H]3O)c2n1 [Compound B28, 6-(4-(1H-pyrazol-1-yl)benzyl)-N-((1S,2S)-2-hydroxycyclohexyl)-2-methyl-5-oxo-5,6-dihydroimidazo[1,2-c]pyrimidine-8-carboxamide]"
4.31,40,> 10,< 5,"Cc1cn2c(=O)n(Cc3c(F)cc(-c4cccc5nn(C)cc45)cc3F)cc(C(=O)N[C@H]3CCOC[C@@H]3O)c2n1 [Compound B29, 6-(2,6-difluoro-4-(2-methyl-2H-indazol-4-yl)benzyl)-N-((3R,4S)-3-hydroxytetrahydro-2H-pyran-4-yl)-2-methyl-5-oxo-5,6-dihydroimidazo[1,2-c]pyrimidine-8-carboxamide]"
